Data taken from ChEMBL document CHEMBL1201862, “PubChem BioAssay data set” (2004).
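Assay format: 96-well plates, 48-hour exposure. GI50 = concentration required for 50% inhibition of growth.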 Active and inactive are the calls of the source. Rule as the data show it: active = GI50 up to about 1.1 µM and inactive = higher.

How the values were obtained:
Experiment in all cases: NCI anticancer screen, dose series, 48 h
786-0 = test system: 786-0
A498 = test system: A498
A549 = test system: A549
ACHN = test system: ACHN
CAKI-1 = test system: CAKI-1
COLO 205 = test system: COLO 205
DLD-1 = test system: DLD-1
DMS-114 = test system: DMS-114
DMS-273 = test system: DMS-273
HCC 2998 = test system: HCC 2998
HCT-116 = test system: HCT-116
HCT-15 = test system: HCT-15
HOP-18 = test system: HOP-18
HOP-62 = test system: HOP-62
HOP-92 = test system: HOP-92
HT-29 = test system: HT-29
IGROV-1 = test system: IGROV-1
KM12 = test system: KM12
LOX IMVI = test system: LOX IMVI
LXFL 529 = test system: LXFL 529
M14 = test system: M14
M19-MEL = test system: M19-MEL
MOLT-4 = test system: MOLT-4
Malme-3M = test system: Malme-3M
NCI-H226 = test system: NCI-H226
NCI-H23 = test system: NCI-H23
NCI-H460 = test system: NCI-H460
NCI-H522 = test system: NCI-H522
OVCAR-3 = test system: OVCAR-3
OVCAR-4 = test system: OVCAR-4
OVCAR-5 = test system: OVCAR-5
OVCAR-8 = test system: OVCAR-8
RXF 393 = test system: RXF 393
RXF 631 = test system: RXF 631
SF-268 = test system: SF-268
SF-295 = test system: SF-295
SF-539 = test system: SF-539
SK-MEL-28 = test system: SK-MEL-28
SK-MEL-2 = test system: SK-MEL-2
SK-MEL-5 = test system: SK-MEL-5
SK-OV-3 = test system: SK-OV-3
SN12C = test system: SN12C
SNB-19 = test system: SNB-19
SNB-75 = test system: SNB-75
SNB-78 = test system: SNB-78
SR = test system: SR
TK-10 = test system: TK-10
U-251 = test system: U-251
UACC-257 = test system: UACC-257
UO-31 = test system: UO-31
XF498 = test system: XF498
CCRF-CEM = test system: CCRF-CEM
EKVX = test system: EKVX
HL-60 = test system: HL-60
K562 = test system: K562
KM-20L2 = test system: KM-20L2
RPMI-8226 = test system: RPMI-8226
SW-620 = test system: SW-620
UACC-62 = test system: UACC-62

CCN(CC)CC(C(=O)Nc1c(C)cccc1C)/C(C)=N\NC(=O)c1ccncc1 (configuration not stated)
GI50 (786-0): > 100 µM (inactive)
GI50 (A498): > 100 µM (inactive)
GI50 (A549): > 100 µM (inactive)
GI50 (ACHN): > 100 µM (inactive)
GI50 (CAKI-1): > 100 µM (inactive)
GI50 (COLO 205): > 100 µM (inactive)
GI50 (DLD-1): > 100 µM (inactive)
GI50 (DMS-114): > 100 µM (inactive)
GI50 (DMS-273): > 100 µM (inactive)
GI50 (HCC 2998): > 100 µM (inactive)
GI50 (HCT-116): > 100 µM (inactive)
GI50 (HCT-15): > 100 µM
GI50 (HOP-18): > 100 µM (inactive)
GI50 (HOP-62): > 100 µM (inactive)
GI50 (HOP-92): > 100 µM (inactive)
GI50 (HT-29): > 100 µM (inactive)
GI50 (IGROV-1): > 100 µM (inactive)
GI50 (KM12): > 100 µM (inactive)
GI50 (LOX IMVI): > 100 µM (inactive)
GI50 (LXFL 529): > 100 µM (inactive)
GI50 (M14): > 100 µM (inactive)
GI50 (M19-MEL): > 100 µM (inactive)
GI50 (MOLT-4): > 100 µM (inactive)
GI50 (Malme-3M): > 100 µM (inactive)
GI50 (NCI-H226): > 100 µM (inactive)
GI50 (NCI-H23): > 100 µM (inactive)
GI50 (NCI-H460): > 100 µM (inactive)
GI50 (NCI-H522): > 100 µM (inactive)
GI50 (OVCAR-3): > 100 µM (inactive)
GI50 (OVCAR-4): > 100 µM (inactive)
GI50 (OVCAR-5): > 100 µM (inactive)
GI50 (OVCAR-8): > 100 µM (inactive)
GI50 (RXF 393): > 100 µM (inactive)
GI50 (RXF 631): > 100 µM (inactive)
GI50 (SF-268): > 100 µM (inactive)
GI50 (SF-295): > 100 µM (inactive)
GI50 (SF-539): > 100 µM (inactive)
GI50 (SK-MEL-28): > 100 µM (inactive)
GI50 (SK-MEL-2): > 100 µM (inactive)
GI50 (SK-MEL-5): > 100 µM (inactive)
GI50 (SK-OV-3): > 100 µM (inactive)
GI50 (SN12C): > 100 µM (inactive)
GI50 (SNB-19): > 100 µM (inactive)
GI50 (SNB-75): > 100 µM (inactive)
GI50 (SNB-78): > 100 µM (inactive)
GI50 (SR): > 100 µM (inactive)
GI50 (TK-10): > 100 µM (inactive)
GI50 (U-251): > 100 µM (inactive)
GI50 (UACC-257): > 100 µM (inactive)
GI50 (UO-31): > 100 µM (inactive)
GI50 (XF498): > 100 µM (inactive)

Cc1c2c(cc[n+]1C)O[B-](c1ccccc1)(c1ccccc1)O2
GI50 (786-0): 71.9 µM (inactive)
GI50 (A498): 64 µM (inactive)
GI50 (A549): 84.5 µM (inactive)
GI50 (ACHN): 35.9 µM (inactive)
GI50 (CAKI-1): 13.5 µM (inactive)
GI50 (CCRF-CEM): 35.9 µM (inactive)
GI50 (COLO 205): 32.6 µM (inactive)
GI50 (DLD-1): 60 µM (inactive)
GI50 (DMS-114): 61.1 µM (inactive)
GI50 (DMS-273): 36.5 µM (inactive)
GI50 (EKVX): 26.5 µM (inactive)
GI50 (HCC 2998): 27.8 µM (inactive)
GI50 (HCT-116): 46.7 µM (inactive)
GI50 (HCT-15): 38.3 µM
GI50 (HL-60): 35.1 µM (inactive)
GI50 (HOP-18): 58.6 µM (inactive)
GI50 (HOP-62): > 100 µM (inactive)
GI50 (HT-29): > 100 µM (inactive)
GI50 (IGROV-1): 90.6 µM (inactive)
GI50 (K562): 46 µM (inactive)
GI50 (KM-20L2): 71 µM (inactive)
GI50 (KM12): 59.8 µM (inactive)
GI50 (LOX IMVI): 51.2 µM (inactive)
GI50 (LXFL 529): 42.9 µM (inactive)
GI50 (M14): 41.5 µM (inactive)
GI50 (M19-MEL): 49.1 µM (inactive)
GI50 (MOLT-4): 35.5 µM (inactive)
GI50 (Malme-3M): 65.5 µM (inactive)
GI50 (NCI-H226): 48.6 µM (inactive)
GI50 (NCI-H23): > 100 µM (inactive)
GI50 (NCI-H460): 50 µM (inactive)
GI50 (NCI-H522): 36.8 µM (inactive)
GI50 (OVCAR-3): 43.7 µM (inactive)
GI50 (OVCAR-4): 64.4 µM (inactive)
GI50 (OVCAR-5): 87.3 µM (inactive)
GI50 (OVCAR-8): 67.3 µM (inactive)
GI50 (RPMI-8226): 40.2 µM (inactive)
GI50 (RXF 393): 52.1 µM (inactive)
GI50 (RXF 631): 67.6 µM (inactive)
GI50 (SF-268): > 100 µM (inactive)
GI50 (SF-295): 53.6 µM (inactive)
GI50 (SF-539): 95.9 µM (inactive)
GI50 (SK-MEL-2): 91.2 µM (inactive)
GI50 (SK-MEL-5): 83.4 µM (inactive)
GI50 (SK-OV-3): 94 µM (inactive)
GI50 (SN12C): 51.8 µM (inactive)
GI50 (SNB-75): 22.3 µM (inactive)
GI50 (SNB-78): 88.3 µM (inactive)
GI50 (SW-620): 26.8 µM (inactive)
GI50 (TK-10): 55.2 µM (inactive)
GI50 (U-251): 53.2 µM (inactive)
GI50 (UACC-257): 55.5 µM (inactive)
GI50 (UACC-62): 16.3 µM (inactive)
GI50 (UO-31): 33.7 µM (inactive)
GI50 (XF498): 35 µM (inactive)

CCOC(=O)/C(C)=C(/O)C(=O)OCC
GI50 (786-0): > 100 µM (inactive)
GI50 (A498): > 100 µM (inactive)
GI50 (A549): > 100 µM (inactive)
GI50 (ACHN): > 100 µM (inactive)
GI50 (CAKI-1): > 100 µM (inactive)
GI50 (CCRF-CEM): > 100 µM (inactive)
GI50 (COLO 205): > 100 µM (inactive)
GI50 (DLD-1): > 100 µM (inactive)
GI50 (DMS-114): > 100 µM (inactive)
GI50 (DMS-273): > 100 µM (inactive)
GI50 (EKVX): > 100 µM (inactive)
GI50 (HCC 2998): > 100 µM (inactive)
GI50 (HCT-116): > 100 µM (inactive)
GI50 (HCT-15): > 100 µM
GI50 (HL-60): > 100 µM (inactive)
GI50 (HOP-18): > 100 µM (inactive)
GI50 (HOP-62): > 100 µM (inactive)
GI50 (HOP-92): > 100 µM (inactive)
GI50 (HT-29): > 100 µM (inactive)
GI50 (IGROV-1): > 100 µM (inactive)
GI50 (K562): > 100 µM (inactive)
GI50 (KM12): > 100 µM (inactive)
GI50 (LOX IMVI): > 100 µM (inactive)
GI50 (LXFL 529): > 100 µM (inactive)
GI50 (M14): > 100 µM (inactive)
GI50 (MOLT-4): > 100 µM (inactive)
GI50 (Malme-3M): > 100 µM (inactive)
GI50 (NCI-H226): > 100 µM (inactive)
GI50 (NCI-H23): > 100 µM (inactive)
GI50 (NCI-H460): > 100 µM (inactive)
GI50 (NCI-H522): > 100 µM (inactive)
GI50 (OVCAR-3): > 100 µM (inactive)
GI50 (OVCAR-4): > 100 µM (inactive)
GI50 (OVCAR-5): > 100 µM (inactive)
GI50 (OVCAR-8): > 100 µM (inactive)
GI50 (RPMI-8226): > 100 µM (inactive)
GI50 (RXF 393): > 100 µM (inactive)
GI50 (RXF 631): > 100 µM (inactive)
GI50 (SF-268): > 100 µM (inactive)
GI50 (SF-295): > 100 µM (inactive)
GI50 (SF-539): > 100 µM (inactive)
GI50 (SK-MEL-28): > 100 µM (inactive)
GI50 (SK-MEL-2): > 100 µM (inactive)
GI50 (SK-MEL-5): > 100 µM (inactive)
GI50 (SK-OV-3): > 100 µM (inactive)
GI50 (SN12C): > 100 µM (inactive)
GI50 (SNB-19): > 100 µM (inactive)
GI50 (SNB-75): > 100 µM (inactive)
GI50 (SNB-78): > 100 µM (inactive)
GI50 (SW-620): > 100 µM (inactive)
GI50 (TK-10): > 100 µM (inactive)
GI50 (U-251): > 100 µM (inactive)
GI50 (UACC-257): > 100 µM (inactive)
GI50 (UACC-62): > 100 µM (inactive)
GI50 (UO-31): > 100 µM (inactive)
GI50 (XF498): > 100 µM (inactive)
